# Results taken from article PMC7864192 (Cancers, 2021).
# Read-outs that look alike come from different tables or passages of the source.
# Assays:
# [1] = tested on: GCPA096 T1.II patient-derived AGCT cell line; experiment: Cell viability drug screen (Cell Titer Glo 2.0, 72 h), mono- and combination therapy, GCPA096T1.II; conditions: GCPA096T1II
# Protocol: (§1) Cell lines were seeded at a density of 500 cells/well in 40 uL in 384-well plates (Corning, NY, USA) with the Multidrop™ cell dispenser (Thermo Fischer Scientific, Waltham, MA, USA) and sealed with Breathe-Easy® membrane (Sigma-Aldrich, St. Louis, MO, USA) to prevent evaporation. The SVOG-3e line was seeded at 1000 cells/well due to contact-dependent growth requirements. For each cell line, three biological repeats and two technical repeats each were performed in order to ensure the validity of the drug screens. […] Subsequently, 11 drugs and 12 drug combinations were dispensed and all wells (excluding blanks and non-DMSO control wells) were normalized to 1% DMSO using the HP Tecan D300e Digital Dispenser (Hewlett-Packard, Palo Alto, CA, USA). All drugs were applied in linear concentration ranges (Table 2), including 16 data points to enable combination drug testing at constant ratios (Table 3). Next, the plates were covered with the Breathe-Easy membrane and incubated. After 72 h, the Multidrop dispensed 15 uL per well of Cell Titer Glo 2.0 (Thermo Fischer Scientific, Waltham, MA, USA) and plates were incubated in the dark for 10 min. After incubation, luminescence excitation was assessed in the Spectramax reader (Molecular Devices, San Jose, CA, USA) (top read, luminescence excitation at 500 nm) and raw data were processed in Microsoft Excel to subtract background luminescence. […] Screens with a Z-factor value of >0.5 were used for further analysis.
# (§2) Overall cell survival (in %) was plotted against the drug concentration range of each drug (in log10[μM]) using GraphPad Prism 8.3.1. Values that exceeded 100% survival (within +20% biological deviation) were normalized to 100% survival. Similarly, values below 0% cell survival (within −20% biological deviation) were normalized to 0% survival. Values exceeding this deviation were excluded. Dose–response curves were obtained using the model “log(inhibitor) vs. variable slope (normalized response)” to fit the dose–response curves and R^2 values were used to indicate how well the model fit the data (Supplementary Materials Figures S4 and S5). […] The maximum plasma concentration (Cmax) and the plasma concentration at steady state (Css) were used as toxicity thresholds. The Cmax was utilized for drugs in which short, high-dosage time courses are required, while the Css was used for maintenance therapy regimes such as anti-hormonal treatment. […] The IC50 values were calculated based on the Chou–Talalay method using Compusyn software [55]. For anti-hormonal treatment, mostly provided as maintenance therapy, we used IC10 values in addition to the IC50.
# (§3) In addition to the 11 monotherapies, 12 drug combinations were tested (Table 3) simultaneously with the individual drug treatments in the same 384-well plate. […] Synergy was evaluated using the mass action law, a systematic analysis assessing dose–response dynamics in a cost-effective manner [56, 57]. The combination index (CI) was used to indicate antagonistic (CI > 1) additive (CI = 1) and synergistic (CI < 1) effects [55].
# [2] = tested on: GCPA096 T1.I patient-derived AGCT cell line; experiment: Cell viability drug screen (Cell Titer Glo 2.0, 72 h), mono- and combination therapy, GCPA096T1.I; conditions: GCPA096T1I
# Protocol: (§4) Cell lines were seeded at a density of 500 cells/well in 40 uL in 384-well plates (Corning, NY, USA) with the Multidrop™ cell dispenser (Thermo Fischer Scientific, Waltham, MA, USA) and sealed with Breathe-Easy® membrane (Sigma-Aldrich, St. Louis, MO, USA) to prevent evaporation. […] For each cell line, three biological repeats and two technical repeats each were performed in order to ensure the validity of the drug screens. […] Subsequently, 11 drugs and 12 drug combinations were dispensed and all wells (excluding blanks and non-DMSO control wells) were normalized to 1% DMSO using the HP Tecan D300e Digital Dispenser (Hewlett-Packard, Palo Alto, CA, USA). […] Next, the plates were covered with the Breathe-Easy membrane and incubated. After 72 h, the Multidrop dispensed 15 uL per well of Cell Titer Glo 2.0 (Thermo Fischer Scientific, Waltham, MA, USA) and plates were incubated in the dark for 10 min. After incubation, luminescence excitation was assessed in the Spectramax reader (Molecular Devices, San Jose, CA, USA) (top read, luminescence excitation at 500 nm) and raw data were processed in Microsoft Excel to subtract background luminescence. The Z-factor, a mathematical method used to quantify the quality of a drug screen based on the calculation of the separation band between the values of the positive and negative controls, was utilized to assess the quality of drug screens [54]. Screens with a Z-factor value of >0.5 were used for further analysis.
# (§5) Overall cell survival (in %) was plotted against the drug concentration range of each drug (in log10[μM]) using GraphPad Prism 8.3.1. Values that exceeded 100% survival (within +20% biological deviation) were normalized to 100% survival. Similarly, values below 0% cell survival (within −20% biological deviation) were normalized to 0% survival. Values exceeding this deviation were excluded. Dose–response curves were obtained using the model “log(inhibitor) vs. variable slope (normalized response)” to fit the dose–response curves and R^2 values were used to indicate how well the model fit the data (Supplementary Materials Figures S4 and S5). […] The IC50 values were calculated based on the Chou–Talalay method using Compusyn software [55]. For anti-hormonal treatment, mostly provided as maintenance therapy, we used IC10 values in addition to the IC50.
# as §3
# [3] = tested on: GCPA108 T3.IV patient-derived AGCT cell line; experiment: Cell viability drug screen (Cell Titer Glo 2.0, 72 h), mono- and combination therapy, GCPA108T3.IV; conditions: GCPA108T3IV
# Protocol: (§6) Cell lines were seeded at a density of 500 cells/well in 40 uL in 384-well plates (Corning, NY, USA) with the Multidrop™ cell dispenser (Thermo Fischer Scientific, Waltham, MA, USA) and sealed with Breathe-Easy® membrane (Sigma-Aldrich, St. Louis, MO, USA) to prevent evaporation. The SVOG-3e line was seeded at 1000 cells/well due to contact-dependent growth requirements. For each cell line, three biological repeats and two technical repeats each were performed in order to ensure the validity of the drug screens. […] Subsequently, 11 drugs and 12 drug combinations were dispensed and all wells (excluding blanks and non-DMSO control wells) were normalized to 1% DMSO using the HP Tecan D300e Digital Dispenser (Hewlett-Packard, Palo Alto, CA, USA). All drugs were applied in linear concentration ranges (Table 2), including 16 data points to enable combination drug testing at constant ratios (Table 3). Next, the plates were covered with the Breathe-Easy membrane and incubated. After 72 h, the Multidrop dispensed 15 uL per well of Cell Titer Glo 2.0 (Thermo Fischer Scientific, Waltham, MA, USA) and plates were incubated in the dark for 10 min. After incubation, luminescence excitation was assessed in the Spectramax reader (Molecular Devices, San Jose, CA, USA) (top read, luminescence excitation at 500 nm) and raw data were processed in Microsoft Excel to subtract background luminescence. The Z-factor, a mathematical method used to quantify the quality of a drug screen based on the calculation of the separation band between the values of the positive and negative controls, was utilized to assess the quality of drug screens [54]. Screens with a Z-factor value of >0.5 were used for further analysis.
# as §2, §3
# [4] = tested on: GCPA028 T1.II patient-derived AGCT cell line; experiment: Cell viability drug screen (Cell Titer Glo 2.0, 72 h), mono- and combination therapy, GCPA028
# Protocol: as §1, §2, §3
# [5] = tested on: GCPA007 T2.IV patient-derived AGCT cell line; experiment: Cell viability drug screen (Cell Titer Glo 2.0, 72 h), mono- and combination therapy, GCPA007T2.IV; conditions: GCPA007T2IV
# Protocol: as §4, §5, §3
# [6] = tested on: GCPA096 T1.XVI patient-derived AGCT cell line; experiment: Cell viability drug screen (Cell Titer Glo 2.0, 72 h), mono- and combination therapy, GCPA096T1.XVI; conditions: GCPA096T1XVI
# Protocol: as §1, §2, §3
# [7] = tested on: GCPA096 T1.V patient-derived AGCT cell line; experiment: Cell viability drug screen (Cell Titer Glo 2.0, 72 h), mono- and combination therapy, GCPA096T1.V; conditions: GCPA096T1V
# Protocol: as §1, §2, §3
# [8] = cited from earlier work
# [9] = tested on: GCPA096 T1.XV patient-derived AGCT cell line; experiment: Cell viability drug screen (Cell Titer Glo 2.0, 72 h), mono- and combination therapy, GCPA096T1.XV; conditions: GCPA096T1XV
# Protocol: as §6, §2, §3
# [10] = tested on: GCPA113 T1.II patient-derived AGCT cell line; experiment: Cell viability drug screen (Cell Titer Glo 2.0, 72 h), mono- and combination therapy, GCPA113T1.II; conditions: GCPA113T1II
# Protocol: as §4, §5, §3
# [11] = tested on: GCPA007 T2.I patient-derived AGCT cell line; experiment: Cell viability drug screen (Cell Titer Glo 2.0, 72 h), mono- and combination therapy, GCPA007T2.I; conditions: GCPA007T2I
# Protocol: as §1, §2, §3
# [12] = tested on: GCPA113 T1.III patient-derived AGCT cell line; experiment: Cell viability drug screen (Cell Titer Glo 2.0, 72 h), mono- and combination therapy, GCPA113T1.III; conditions: GCPA113T1III
# Protocol: as §4, §5, §3
# AGCT cell lines = experiment: Cell viability drug screen (72 h), summary over AGCT cell lines (12 patient-derived, with or without KGN); format: cell-based, human; conditions: median over AGCT cell lines; read-out: median IC50 in monotherapy
# Protocol: as §6, §2, §3
# [13] = tested on: GCPA113 T1.I patient-derived AGCT cell line; experiment: Cell viability drug screen (Cell Titer Glo 2.0, 72 h), mono- and combination therapy, GCPA113T1.I; conditions: GCPA113T1I
# Protocol: as §4, §5, §3
# [14] = tested on: KGN cells (AGCT cell line); experiment: Cell viability drug screen (Cell Titer Glo 2.0, 72 h), mono- and combination therapy, KGN
# Protocol: KGN was cultured in conditions identical to AGCT-patient-derived cell lines.
# as §1, §5
# [15] = drug within Carbo+Pacli+6thio2dG
# [16] = drug within Carbo+Pacli+Alpelisib
# [17] = read-out: IC50 in monotherapy, single drug, 72 h, unit not given (compared with Cmax/Css in uM)
# [18] = in combination Carbo+Pacli+6thio2dG
# [19] = in combination Carbo+Pacli+Alpelisib
# [20] = read-out: IC50 in monotherapy, monotherapy
smiles,measurement,setting,value
N.N.O=C([O-])C1(C(=O)[O-])CCC1.[Pt+2] [Carboplatin],"DRI (Fa=0,5)",[1]; drug within Carbo+Pacli,1.11
same,"DRI (Fa=0,5)",[1]; [15],2.3
same,"DRI (Fa=0,5)",[1]; [16],5.75
same,IC50,[1]; [17],168 µM
same,"DRI (Fa=0,5)",[2]; in combination Carbo+Pacli,1.8
same,"DRI (Fa=0,5)",[2]; [18],2.92
same,"DRI (Fa=0,5)",[2]; [19],7.45
same,IC50,[2]; [20],257 µM
same,"DRI (Fa=0,5)",[3]; in Carbo+Pacli,1
same,"DRI (Fa=0,5)",[3]; in Carbo+Pacli+6thio2dG,0.7515
same,"DRI (Fa=0,5)",[3]; in Carbo+Pacli+Alpelisib,9.921
same,"DRI (Fa=0,5)","[4]; GCPA028, in combination Carbo+Pacli",0.51
same,"DRI (Fa=0,5)","[4]; GCPA028, in combination Carbo+Pacli+6thio2dG",0.29
same,"DRI (Fa=0,5)","[4]; GCPA028, in combination Carbo+Pacli+Alpelisib",41.26
same,IC50,"[4]; read-out: IC50 in monotherapy, GCPA028, monotherapy",> 500 µM
same,"DRI (Fa=0,5)",[5]; in combination Carbo+Pacli,2.73
same,"DRI (Fa=0,5)",[5]; [18],1.36
same,"DRI (Fa=0,5)",[5]; [19],37.92
same,IC50,[5]; [20],> 500 µM
same,"DRI (Fa=0,5)",[6]; in Carbo+Pacli,0.64
same,"DRI (Fa=0,5)",[6]; in Carbo+Pacli+6thio2dG,0.59
same,"DRI (Fa=0,5)",[6]; in Carbo+Pacli+Alpelisib,2.39
same,IC50,[6]; [20],144 µM
same,"DRI (Fa=0,5)",[7]; drug within Carbo+Pacli,1.19
same,"DRI (Fa=0,5)",[7]; [15],4.7
same,"DRI (Fa=0,5)",[7]; [16],17.09
same,IC50,[7]; [17],> 500 µM
same,Cmax/Css plasma (Log 10),"[8]; human maximum or steady state plasma concentration, log10 of the uM value",2.13 Log 10
same,Cmax/Css plasma (Log 10),"[8]; human plasma Cmax/Css, log10 of uM value, from phase I/II clinical trials",2.13 Log 10
same,Cmax/Css plasma (Log 10),"[8]; human plasma maximum/steady state concentration, ref phase I/II clinical trials",2.13 Log 10
same,Cmax/Css plasma (Log 10),"[8]; human plasma, maximum or steady state concentration, log10 of uM value",2.13
same,Cmax/Css plasma (Log 10),"[8]; human plasma, log10 of uM, phase I/II trials",2.13
same,Cmax,"[8]; read-out: Cmax (maximum drug concentration achieved in plasma), human plasma, phase I/II studies",135 µM
same,Cmax,"[8]; read-out: Cmax/Css plasma, human maximum or steady state plasma concentration",135 µM
same,Cmax,"[8]; read-out: Cmax/Css plasma, human plasma Cmax/Css, from phase I/II clinical trials",135 µM
same,Cmax,"[8]; read-out: Cmax/Css plasma, human plasma maximum/steady state concentration, ref phase I/II clinical trials",135 µM
same,Cmax,"[8]; read-out: Cmax/Css plasma, human plasma, maximum or steady state concentration",135 µM
same,Cmax,"[8]; read-out: Cmax/Css plasma, human plasma, phase I/II trials",135 µM
same,"DRI (Fa=0,5)",[9]; drug within Carbo+Pacli,0.85
same,"DRI (Fa=0,5)",[9]; [15],2.35
same,"DRI (Fa=0,5)",[9]; [16],7.71
same,IC50,[9]; [17],265 µM
same,"DRI (Fa=0,5)",[10]; drug within Carbo+Pacli,1.06
same,"DRI (Fa=0,5)",[10]; [15],1.33
same,"DRI (Fa=0,5)",[10]; [16],4.67
same,IC50,[10]; [20],276 µM
same,"DRI (Fa=0,5)",[11]; in Carbo+Pacli (10:1),4.425
same,"DRI (Fa=0,5)",[11]; in Carbo+Pacli+6thio2dG (10:1:1),2.54
same,"DRI (Fa=0,5)",[11]; in Carbo+Pacli+Alpelisib (10:1:2),230.67
same,IC50,"[11]; read-out: IC50 in monotherapy, cell viability 72 h after drug application",> 500 µM
same,"DRI (Fa=0,5)",[12]; drug within Carbo+Pacli,1.76
same,"DRI (Fa=0,5)",[12]; [15],1.97
same,"DRI (Fa=0,5)",[12]; [16],35.75
same,IC50,[12]; [20],358 µM
same,IC50,AGCT cell lines,343 µM
same,"DRI (Fa=0,5)",[13]; in Carbo+Pacli,1.12
same,"DRI (Fa=0,5)",[13]; in Carbo+Pacli+6thio2dG,2.55
same,"DRI (Fa=0,5)",[13]; in Carbo+Pacli+Alpelisib,32.56
same,IC50,[13]; [20],> 500 µM
same,"DRI (Fa=0,5)",[14]; drug within Carbo+Pacli,5.1507
same,"DRI (Fa=0,5)",[14]; [15],2.192
same,"DRI (Fa=0,5)",[14]; [16],26.6538
same,IC50,[14]; [20],297 µM
